According to the supplement of paper PMC13380429:

Tests used:
Details in all cases: 72 h
Caco-2 [1] = experiment: relative viability EC50 (midpoint between 100% and the lowest measured viability); higher = less toxic
HepG2 [2] = experiment: as above
Vero E6 [3] = experiment: as above
U2OS [4] = experiment: as above
Calu-3 [5] = experiment: as above
Caco-2 [6] = experiment: drug sensitivity score (DSS) for viability; higher = more toxic; extreme values may be limits of the assay
HepG2 [7] = experiment: as above
Vero E6 [8] = experiment: as above
U2OS [9] = experiment: as above
Calu-3 [10] = experiment: as above
Caco-2 [11] = experiment: cell viability relative to DMSO; higher = less toxic
HepG2 [12] = experiment: as above
Vero E6 [13] = experiment: as above
U2OS [14] = experiment: as above
Calu-3 [15] = experiment: as above

O=C(O)c1ccccc1Nc1cccc(OCc2ccc3ccccc3n2)c1 [SR-2640]
Details | drug sensitivity score | relative viability EC50 [µM]
Caco-2 [1] | – | > 10
Caco-2 [6] | 0 | –
Calu-3 [5] | – | > 10
Calu-3 [10] | 0 | –
HepG2 [2] | – | > 10
HepG2 [7] | 0 | –
U2OS [4] | – | > 10
U2OS [9] | 0 | –
Vero E6 [3] | – | > 10
Vero E6 [8] | 0 | –

cell viability [%]
Details | Caco-2 [11] | Calu-3 [15] | HepG2 [12] | U2OS [14] | Vero E6 [13]
1 nM | 105 | 97.6 | 87.9 | 105 | 92
10 nM | 103 | 94.6 | 96.3 | 98.1 | 98.9
100 nM | 107 | 103 | 96.9 | 103 | 92.9
1000 nM | 96.8 | 98.2 | 101 | 99.2 | 95
10000 nM | 91.7 | 98.4 | 105 | 101 | 86.9
